Test results: ChEMBL document CHEMBL1201862, “PubChem BioAssay data set” (2004)
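Test compounds were applied to cells in 96-well plates for 48 hours at 5 doses. The concentration for 50% growth inhibition is given as GI50.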 Activity calls are given as the source filed them. Cut-off read from the data, not from the text of the source: active = GI50 up to about 1.1 µM and inactive = higher.

How the values were obtained:
Experiment in all cases: NCI tumour cell line growth inhibition, 48 h
A498 = system: A498
EKVX = system: EKVX
HCC 2998 = system: HCC 2998
HOP-62 = system: HOP-62
M14 = system: M14
NCI-H226 = system: NCI-H226
NCI-H23 = system: NCI-H23
NCI-H460 = system: NCI-H460
OVCAR-3 = system: OVCAR-3
OVCAR-8 = system: OVCAR-8
SK-MEL-2 = system: SK-MEL-2
SN12C = system: SN12C
SR = system: SR
SW-620 = system: SW-620

Compound	GI50 (A498)	GI50 (EKVX)	GI50 (HCC 2998)	GI50 (HOP-62)	GI50 (M14)	GI50 (NCI-H226)	GI50 (NCI-H23)	GI50 (NCI-H460)	GI50 (OVCAR-3)	GI50 (OVCAR-8)	GI50 (SK-MEL-2)	GI50 (SN12C)	GI50 (SR)	GI50 (SW-620)
CCCCC(C)C(OC(=O)CC(CC(=O)O)C(=O)O)C(CC(C)CC(O)CCCCC(O)CC(O)C(C)N)OC(=O)CC(CC(=O)O)C(=O)O (configuration not stated)	> 100 µM (inactive)	> 100 µM (inactive)	> 100 µM (inactive)	> 100 µM (inactive)	> 100 µM (inactive)	> 100 µM (inactive)	> 100 µM (inactive)	> 100 µM (inactive)	> 100 µM (inactive)	> 100 µM (inactive)	> 100 µM (inactive)	> 100 µM (inactive)	> 100 µM (inactive)	> 100 µM (inactive)
O=C1CNC(=O)c2[nH]cnc2N1	> 100 µM (inactive)	> 100 µM (inactive)	> 100 µM (inactive)		> 100 µM (inactive)	> 100 µM (inactive)	> 100 µM (inactive)	> 100 µM (inactive)	> 100 µM (inactive)	> 100 µM (inactive)		> 100 µM (inactive)	> 100 µM (inactive)	> 100 µM (inactive)
NNC(=O)/C(=C/c1ccc(Cl)cc1Cl)NC(=O)c1ccccc1	> 100 µM (inactive)	< 0.01 µM (active)	> 100 µM (inactive)	> 100 µM (inactive)	> 100 µM (inactive)	> 100 µM (inactive)	> 100 µM (inactive)	> 100 µM (inactive)	> 100 µM (inactive)	> 100 µM (inactive)	> 100 µM (inactive)	> 100 µM (inactive)	> 100 µM (inactive)	> 100 µM (inactive)
O=c1ncccn1[C@@H]1O[C@H](CO)[C@H](O)C1O (some centres not stated)	> 100 µM (inactive)	> 100 µM (inactive)	40.9 µM (inactive)	68.2 µM (inactive)	> 100 µM (inactive)	> 100 µM (inactive)	> 100 µM (inactive)	47.9 µM (inactive)	> 100 µM (inactive)	> 74.5 µM (inactive)	> 73.5 µM (inactive)	> 77.1 µM (inactive)	43.6 µM (inactive)	> 100 µM (inactive)
COC(=O)C1=C(C(=O)OC)N(C(C)C)[C@H]2C(C(=O)OC)=C(C(=O)OC)N(C(C)C)[C@@H]12	> 100 µM (inactive)	> 100 µM (inactive)		> 100 µM (inactive)	> 100 µM (inactive)	> 100 µM (inactive)	> 100 µM (inactive)	> 100 µM (inactive)	95.1 µM (inactive)	> 100 µM (inactive)	> 100 µM (inactive)	> 100 µM (inactive)	48 µM (inactive)	> 100 µM (inactive)
CN1C(=O)CC(c2cccc(C3CC(=O)N(C)C3=O)n2)C1=O (configuration not stated)	> 100 µM (inactive)	> 100 µM (inactive)	> 100 µM (inactive)	> 100 µM (inactive)	> 100 µM (inactive)	> 100 µM (inactive)	> 100 µM (inactive)	> 100 µM (inactive)	> 100 µM (inactive)	> 100 µM (inactive)	> 100 µM (inactive)	> 100 µM (inactive)	> 100 µM (inactive)	> 100 µM (inactive)
C=C(C)C1CC=C(C)C(O)([C@@]2(O)C[C@H](C(=C)C)CC=C2C)C1 (some centres not stated)	23.8 µM (inactive)		16.4 µM (inactive)	16.9 µM (inactive)	16.4 µM (inactive)	> 10 µM (inactive)	17.3 µM (inactive)	18 µM (inactive)	13.4 µM (inactive)	17.2 µM (inactive)	17.4 µM (inactive)	18.3 µM (inactive)	21.7 µM (inactive)	26.7 µM (inactive)
C=C(C)C1C/C=C(/C)CCCC2(CCC3=C(CC(C(=C)C)C/C=C(/C)CCC3)O2)C(=O)C1 (configuration not stated)	> 100 µM (inactive)	> 100 µM (inactive)	> 100 µM (inactive)	> 100 µM (inactive)	> 100 µM (inactive)	> 100 µM (inactive)	> 100 µM (inactive)	> 100 µM (inactive)		> 100 µM (inactive)	> 100 µM (inactive)	> 100 µM (inactive)	> 100 µM (inactive)	> 100 µM (inactive)
